# Source: paper PMC12070605 (BMC Chemistry, 2025)
# How the values were obtained:
# Assay type in all cases: cell-based, human
# MCF-7 cell line [1] = experiment: MTT cytotoxicity assay, MCF-7
# MCF-7 cell line [2] = experiment: Annexin V-PI flow cytometry apoptosis assay; conditions: 72 h, untreated 4.5%
# MCF-7 cell line [3] = experiment: Cell cycle analysis by flow cytometry; conditions: 72 h, untreated 15.93%
Compound,improvement of activity compared to Erlotinib (MCF-7 cell line [1]) [folds],percentage of apoptotic cells (MCF-7 cell line [2]; 5 µM) [%],percentage of apoptotic cells (MCF-7 cell line [2]; 10 µM) [%],percentage of apoptotic cells (MCF-7 cell line [2]; 20 µM) [%],accumulation of the cells in S phase (MCF-7 cell line [3]; 5 µM) [%],accumulation of the cells in S phase (MCF-7 cell line [3]; 10 µM) [%],accumulation of the cells in S phase (MCF-7 cell line [3]; 20 µM) [%]
"NNc1nc2ccc(Br)cc2c(=O)n1-c1ccc(F)cc1 [7j, 6-bromo-3-(4-fluorophenyl)-2-hydrazineylquinazolin-4(3H)-one]",6,–,–,–,–,–,–
"NNc1nc2ccc(Br)cc2c(=O)n1-c1ccc(Cl)cc1 [7k, 6-bromo-3-(4-chlorophenyl)-2-hydrazineylquinazolin-4(3H)-one]",6,17.46,41.2,56,16.66,25.65,30.61
